Experiments:
Conditions in all cases: exposure time: 72 h
E28 [1] = patient-derived glioblastoma stem cells of classical subtype; assay: surviving fraction (nuclei count normalised to DMSO); higher = more cells surviving (less toxic)
E57 [2] = patient-derived glioblastoma stem cells of mesenchymal subtype; assay: as above
E31 [3] = patient-derived glioblastoma stem cells of proneural subtype; assay: as above
E34 [4] = patient-derived glioblastoma stem cells of proneural subtype; assay: as above
E13 [5] = patient-derived glioblastoma stem cells of classical subtype; assay: as above
E21 [6] = patient-derived glioblastoma stem cells of mesenchymal subtype; assay: as above
FT3469 [7] = normal neural stem cell line; assay: as above
E28 [8] = assay: phenotypic distance (Euclidean, principal components) from DMSO controls (arbitrary units); higher = stronger morphological change
E57 [9] = assay: as above
E31 [10] = assay: as above
E34 [11] = assay: as above
E13 [12] = assay: as above
E21 [13] = assay: as above
FT3469 [14] = assay: as above
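Wherever phenotypic distance (Euclidean, principal components) from DMSO controls is given: cell Painting imaging in 384-well plates, CellProfiler features reduced to at least 20 principal components, Euclidean distance versus same-plate DMSO vehicle wells (0.1% v/v), median over six images per well.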
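Wherever surviving fraction (nuclei count normalised to DMSO) is given: nuclei counted by high-content imaging of Hoechst-stained cells in laminin-coated 384-well plates, relative to 0.1% DMSO vehicle wells, with staurosporine as cell-death control.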

CC(=O)OC[C@H]1O[C@@H]([S-])[C@H](OC(C)=O)[C@@H](OC(C)=O)[C@@H]1OC(C)=O.CCP(CC)CC.[Au+] [Auranofin]
Conditions	phenotypic distance	surviving fraction
E13 [5], 4.1 nM	–	0.841
E13 [5], 12.3 nM	–	1.05
E13 [5], 37 nM	–	1.04
E13 [5], 111.1 nM	–	1.09
E13 [5], 333.3 nM	–	0.968
E13 [5], 1000 nM	–	0.851
E13 [5], 3000 nM	–	0.227
E13 [12], 4.1 nM	0.698	–
E13 [12], 12.3 nM	0.74	–
E13 [12], 37 nM	0.381	–
E13 [12], 111.1 nM	0.629	–
E13 [12], 333.3 nM	0.569	–
E13 [12], 1000 nM	0.919	–
E13 [12], 3000 nM	5.8	–
E21 [6], 4.1 nM	–	0.997
E21 [6], 12.3 nM	–	1
E21 [6], 37 nM	–	1.02
E21 [6], 111.1 nM	–	0.947
E21 [6], 333.3 nM	–	0.979
E21 [6], 1000 nM	–	0.84
E21 [6], 3000 nM	–	0.255
E21 [13], 4.1 nM	0.692	–
E21 [13], 12.3 nM	0.512	–
E21 [13], 37 nM	1.07	–
E21 [13], 111.1 nM	0.632	–
E21 [13], 333.3 nM	1.15	–
E21 [13], 1000 nM	2.27	–
E21 [13], 3000 nM	5.54	–
E28 [1], 4.1 nM	–	1.1
E28 [1], 12.3 nM	–	0.95
E28 [1], 37 nM	–	0.888
E28 [1], 111.1 nM	–	0.581
E28 [1], 333.3 nM	–	0.418
E28 [1], 1000 nM	–	0.177
E28 [1], 3000 nM	–	0.00427
E28 [8], 4.1 nM	1.07	–
E28 [8], 12.3 nM	0.679	–
E28 [8], 37 nM	0.773	–
E28 [8], 111.1 nM	1.25	–
E28 [8], 333.3 nM	1.81	–
E28 [8], 1000 nM	2.9	–
E28 [8], 3000 nM	11.4	–
E31 [3], 4.1 nM	–	1.17
E31 [3], 12.3 nM	–	0.911
E31 [3], 37 nM	–	1.03
E31 [3], 111.1 nM	–	1.13
E31 [3], 333.3 nM	–	1.09
E31 [3], 1000 nM	–	0.723
E31 [3], 3000 nM	–	0.00651
E31 [10], 4.1 nM	1.04	–
E31 [10], 12.3 nM	0.586	–
E31 [10], 37 nM	0.373	–
E31 [10], 111.1 nM	1.33	–
E31 [10], 333.3 nM	1.16	–
E31 [10], 1000 nM	1.4	–
E31 [10], 3000 nM	8.52	–
E34 [4], 4.1 nM	–	0.913
E34 [4], 12.3 nM	–	1.08
E34 [4], 37 nM	–	1.18
E34 [4], 111.1 nM	–	1.01
E34 [4], 333.3 nM	–	0.92
E34 [4], 1000 nM	–	0.993
E34 [4], 3000 nM	–	0.269
E34 [11], 4.1 nM	0.444	–
E34 [11], 12.3 nM	0.588	–
E34 [11], 37 nM	1.03	–
E34 [11], 111.1 nM	0.434	–
E34 [11], 333.3 nM	1.04	–
E34 [11], 1000 nM	0.939	–
E34 [11], 3000 nM	5.66	–
E57 [2], 4.1 nM	–	0.985
E57 [2], 12.3 nM	–	0.96
E57 [2], 37 nM	–	1.12
E57 [2], 111.1 nM	–	0.993
E57 [2], 333.3 nM	–	0.966
E57 [2], 1000 nM	–	0.884
E57 [2], 3000 nM	–	0.0901
E57 [9], 4.1 nM	0.808	–
E57 [9], 12.3 nM	0.759	–
E57 [9], 37 nM	0.726	–
E57 [9], 111.1 nM	0.677	–
E57 [9], 333.3 nM	1.12	–
E57 [9], 1000 nM	2.3	–
E57 [9], 3000 nM	9.6	–
FT3469 [7], 4.1 nM	–	1.13
FT3469 [7], 12.3 nM	–	1.02
FT3469 [7], 37 nM	–	0.955
FT3469 [7], 111.1 nM	–	0.76
FT3469 [7], 333.3 nM	–	0.898
FT3469 [7], 1000 nM	–	0.909
FT3469 [7], 3000 nM	–	0.0719
FT3469 [14], 4.1 nM	0.766	–
FT3469 [14], 12.3 nM	0.505	–
FT3469 [14], 37 nM	0.606	–
FT3469 [14], 111.1 nM	1.02	–
FT3469 [14], 333.3 nM	0.835	–
FT3469 [14], 1000 nM	1.28	–
FT3469 [14], 3000 nM	5.55	–
